Experimental data: US20230399358A1, “IMMUNOGLOBULIN PURIFICATION PEPTIDES AND THEIR USE” (North Carolina State University, priority 2019, published 2023)
“Also recorded” adds a separate entry of the source. Read-outs that look alike come from different tables or passages of the source. No end group written: not given here.

Columns and labels:
[1] = tested on: human polyclonal IgG in CHO-S cell culture fluid; experiment: Static purification of IgG from CHO cell culture supernatant on peptide-Toyopearl resins, SDS-PAGE densitometry; conditions: for % Purity (IgG over total proteins): lane FT (flow-through); for % Purity (IgG over total eluted proteins): lane R (pH 2.5)
Protocol: (§1) Measurement of IgG binding by peptide-based chromatographic adsorbents: For initial studies, 35 mg of MWRGWQ (SEQ ID NO:2)-Toyopearl, RHLGWF (SEQ ID NO:3)-Toyopearl, WQRHGI (SEQ ID NO:1)-Toyopearl, GWLHQR (SEQ ID NO:4)-Toyopearl, and HWRGWV (SEQ ID NO:18)-Toyopearl (control) resins were equilibrated in PBS pH 7.4, reaching a swollen volume of 0.1 mL, and subsequently incubated with 1 mg/mL IgG in 0.205 mg/mL CHO cell culture supernatant for 30 minutes. The resins were subsequently washed several times with PBS to remove non-specifically bound proteins. Elution was performed with 100 mM glycine buffer pH 2.5. Flowthrough and elution fractions were collected and analyzed by SDS PAGE under reducing conditions. The resulting gels were stained with Coomassie staining. Further, 25 mg of the adsorbents MWRGWQ (SEQ ID NO:2)-Toyopearl, NIFRGWQ (SEQ ID NO:21)-Toyopearl, MWRAWQ (SEQ ID NO:5)-Toyopearl, MWRGFQ (SEQ ID NO:7)-Toyopearl, MWRGWN (SEQ ID NO:22)-Toyopearl, (NorL) WRGWQ (SEQ ID NO:23)-Toyopearl, MGRGWQ (SEQ ID NO:24)-Toyopearl, MWRWQ (SEQ ID NO:6)-Toyopearl, MWRGGQ (SEQ ID NO:26)-Toyopearl, GWRGWQ (SEQ ID NO:8)-Toyopearl, WQRHGI (SEQ ID NO:1)-Toyopearl, WNRHGI (SEQ ID NO:12)-Toyopearl, WQRAGI (SEQ ID NO:28)-Toyopearl, WQRHAI (SEQ ID NO:11)-Toyopearl, WQRHGL (SEQ ID NO:9)-Toyopearl, FQRHGI (SEQ ID NO:29)-Toyopearl, and WQRHGV (SEQ ID NO:10)-Toyopearl resins were equilibrated in PBS pH 7.4, reaching a swollen volume of 0.1 mL, and subsequently incubated with 1 mg/mL IgG in PBS at pH 7.4 for 30 minutes. The amount of unbound IgG in the supernatant samples was quantified by Bradford assay and utilized to determine the IgG binding % by the peptide variants.
Characterization of IgG-binding peptide variants WQRHGI (SEQ ID NO:1), MWRGWQ (SEQ ID NO:2), RHLGWF (SEQ ID NO:3), and GWLHQR (SEQ ID NO:4) in competitive conditions: The four selected sequence variants were tested for their ability to purify human IgG from a CHO cell culture supernatant and found largely to mirror their in silico predictions. Even though they seemed to underperform in silico, RHLGWF (SEQ ID NO:3) and GWLHQR (SEQ ID NO:4) were tested alongside WQRHGI (SEQ ID NO:1) and MWRGWQ (SEQ ID NO:2) in these conditions in order to confirm their ability to bind IgG and examine their selectivity as predicted in silico. The feedstock was prepared by spiking human polyclonal IgG into a clarified null CHO-S cell culture fluid to obtain an IgG concentration of 1 mg/mL and a CHO HCP concentration of 0.205 mg/mL. An aliquot of 500 μL was loaded onto each peptide adsorbent in static conditions for 30 min. Following a washing step with PBS to remove loosely bound proteins, a first elution step was conducted using 0.1 M glycine buffer pH 2.5 to remove all bound proteins. Flow through fractions and pH 2.5 elution fractions were loaded neat and analyzed by SDS PAGE (FIGS. 6A-6B). The values of IgG purity in the eluted fractions were determined by densitometric analysis of the corresponding lanes on the gels, and are reported in Table 9.

[2] = tested on: human polyclonal IgG in CHO-S cell culture fluid; experiment: as above; conditions: Gel B, lane E (pH 4)
host cell protein (HCP) = conditions: literature value; cited from earlier work
human IgG [3] = conditions: reference [77], cited from earlier work
IgG = conditions: optimized adsorbents, Menegatti et al. 2016; cited from earlier work
[4] = Solubility of free peptide in buffer (preparation for ITC); type: physicochemical
Protocol: MWRGWQ (SEQ ID NO:2) was unable to be examined via ITC. Peptide MWRGWQ (SEQ ID NO:2) was not soluble in pH 7.4 buffer, likely due to self-associative properties. MWRGWQ (SEQ ID NO:2) was found soluble in highly acidic buffer, but ITC results were confounded by the heat of mixing between acidic and neutral solutions. […] Attempts were made to raise the pH of buffer in which MWRGWQ (SEQ ID NO:2) was dissolved, but the peptide was seen to gel when the pH was raised above 5.
MWRGWQ's (SEQ ID NO:2) binding affinity could not be examined using ITC. […] However, when the peptide was dissolved in a lower pH solution, the heat of mixing between the different pH solutions was extremely high, and peptide-peptide or peptide-IgG binding energies upon titration became difficult to differentiation from the heat of mixing in ITC experiments.

human IgG [5] = type: binding
Protocol: as §1
A limited library of residue-by-residue changes confirmed the importance of each residue in peptides WQRHGI (SEQ ID NO:1) and MWRGWQ (SEQ ID NO:2) in reducing the binding energy between the peptide and the IgG target. […] This was accomplished by designing and constructing an ensemble of 20 variants of peptides WQRHGI (SEQ ID NO:1) and MWRGWQ (SEQ ID NO:2). Selected residues in positions 1-6 were mutated. The peptide variants were synthesized directly on Toyopearl AF-amino-650M resin via Fmoc/tBu chemistry. The resulting adsorbents were incubated with a solution of human IgG at 2 mg/mL at a ratio of 1 mL of resin per 3.5 mL of solution for 30 min at room temperature. The residual concentration of IgG in solution was determined by Bradford concentration assay of the supernatants and utilized to calculate the amounts of bound IgG per volume of resin; Table 7 reports the % binding, defined as mg IgG bound by variant/mg IgG bound by original sequence (either WQRHGI (SEQ ID NO:1) or MWRGWQ (SEQ ID NO:2))×100%, of each sequence variant.

[6] = tested on: human polyclonal IgG in CHO cell culture fluid; experiment: Chromatographic purification of IgG from CHO cell culture fluid on WorkBeads resin, SDS-PAGE densitometry; conditions: FIG. 8, reduced ligand density 35.2 milliequivalents/mL
Protocol: Purification of IgG from CHO Cell culture fluids using MWRGWQC (SEQ ID NO:31)- and WQRHGIC (SEQ ID NO:30)—Workbeads: A volume of 0.1 mL of resin was packed in a PEEK microbore column, installed on a Waters 2695 unit, and equilibrated with PBS, pH 7.4. All chromatographic buffers were filtered through a compatible 0.2 μm filter prior to use. A volume of 100 μL of solution of human polyclonal IgG at 1 mg/mL in a CHO cell culture fluid at 0.205 mg/mL CHO HCPs was injected in the column at 0.02 mL/min (RT: 5 minutes). Following injection, the resin was washed with PBS at 0.2 mL/min and, subsequently, with 100 mM NaCl in PBS at 0.2 mL/min. Elution was then conducted with […] pH 4. An acidic cleaning step was conducted in 0.1 M glycine pH 2.5 to remove any proteins still bound. The absorbance of the effluent was monitored by UV/Vis spectrophotometry at 280 nm. Fractions were collected and adjusted to neutral pH. Total protein concentration was measured by BCA assay. All collected fractions were also analyzed via SDS PAGE under reducing conditions. The gel was stained by silver staining, and the overall IgG purity in the eluted fractions was determined by densitometric analysis using ImageJ software. Finally, the feed and eluted fractions were analyzed using a CHO-specific ELISA kit to determine the log removal value (LRV) of HCPs.
The high purity of the recovered IgG using WQRHGI (SEQ ID NO:1), as calculated by densitometric analysis (100%) was confirmed by the HCP LRV value of 2.7, thus indicating WQRHGI (SEQ ID NO:1) has purification abilities similar to Protein A. This is a remarkable result. […] The collected chromatographic fractions were analyzed by SDS-PAGE (FIG. 7B, silver stained to highlight diluted CHO HCPs). The % values of IgG in the fractions (expressed as a ratio of IgG concentration over total protein (e.g., IgG+CHO HCPs)) were calculated by densitometric analysis of the lanes in the SDS gel and were as follows: Control (C), 0.00%; Load (L) 59.77%; Flowthrough (FT), 0.00%; Elution 1 (El1), 100.00%; Elution 2 (El2), 0.00%; IgG 93.30%. […]

[7] = target: human polyclonal IgG (human); experiment: batch incubation of peptide-Toyopearl resin with human IgG, Bradford of unbound IgG; mg IgG bound relative to MWRGWQ (the reference itself)
[8] = target: human polyclonal IgG (human); experiment: batch incubation of peptide-Toyopearl resin with human IgG, Bradford of unbound IgG; mg IgG bound relative to WQRHGI (the reference itself)
[9] = target: human polyclonal IgG (human); experiment: ITC at 25 C, peptide titrated into polyclonal IgG in PBS pH 7.4, independent single-site fit
[10] = target: human polyclonal IgG (human); experiment: breakthrough curve, 20 mg/mL IgG in PBS on a peptide-WorkBeads column, residence time 2 min
[11] = target: human polyclonal IgG (human); experiment: breakthrough curve, 20 mg/mL IgG in PBS on a peptide-WorkBeads column, residence time 5 min
[12] = target: human polyclonal IgG (human); experiment: batch adsorption isotherm of IgG on peptide-WorkBeads resin, BCA of unbound IgG, Langmuir fit
[13] = target: human polyclonal IgG (human); experiment: batch adsorption isotherm of IgG on peptide-WorkBeads resin, BCA of unbound IgG, Langmuir fit (KD(Solid))

GWLHQR
% Purity (IgG over total proteins) ([1]; Gel B): 57.02% | % Purity (IgG over total eluted proteins) ([1]; Gel B): 0.00% | IgG yield ([1]; competitive conditions, CHO cell culture supernatant): lower than expected IgG yields; also recorded: lower IgG yield | % Purity (IgG over total eluted proteins) [2]: 100%

HWRGWV [reference compound]
% Purity (IgG over total proteins) ([1]; Gel A): 100.00% | % Purity (IgG over total eluted proteins) ([1]; Gel A): 97.81% | % Purity (IgG over total proteins) ([1]; Gel B): 45.40% | % Purity (IgG over total eluted proteins) ([1]; Gel B): 93.79% | HCP LRV (host cell protein (HCP)): 1.6 | DBC at 10% breakthrough (human IgG [3]; residence time 2 min): 25 mg IgG/mL resin | DBC at 10% breakthrough (human IgG [3]; residence time 5 min): 36 mg IgG/mL resin | binding capacity (IgG): up to 91.5 mg of IgG per mL of adsorbent

MWRGWQ [MWRGWQ]
solubility ([4]; highly acidic buffer / lower pH): soluble; also recorded: could be dissolved | solubility ([4]; pH 7.4 buffer / neutral pH): not soluble; also recorded: tended to gel | % Binding (mg IgG bound by variant/mg IgG bound by original sequence × 100%) (human IgG [5]): 100.00%

Protein A: Protein A adsorbent, industrial standard for mAb capture
HCP LRV (host cell protein (HCP)): 2.5-3.0 | % Purity (IgG over total protein) ([6]; elution lane (pH 4)): 100.00% | % Purity (IgG over total protein) ([6]; lane FT): 55.74%

MWRGWQ [MWRGWQ (SEQ ID NO:2)]
% Binding [7]: 100%

WQRHGI [WQRHGI (SEQ ID NO:1)]
% Binding [8]: 100% | Kd [9]: 58.8 µM | stoichiometry (N, interacting peptides per IgG) (peptides per IgG) [9]: 10

WQRHGIC(iodoacetyl‑activated TREN WorkBeads resin) (not fully specified) [WQRHGIC (SEQ ID NO:30)-WorkBeads]
DBC (dynamic binding capacity at 10% breakthrough) (mg IgG/mL resin) [10]: 33.6 | DBC (dynamic binding capacity at 10% breakthrough) (mg IgG/mL resin) [11]: 43.8 | Qmax (mg IgG/mL resin) [12]: 52.6 | Kd [13]: 3.2 µM

MWRGWQC(iodoacetyl‑activated TREN WorkBeads resin) (not fully specified) [MWRGWQC (SEQ ID NO:31)-WorkBeads]
DBC (dynamic binding capacity at 10% breakthrough) (mg IgG/mL resin) [10]: 44 | DBC (dynamic binding capacity at 10% breakthrough) (mg IgG/mL resin) [11]: 55.3 | Qmax (mg IgG/mL resin) [12]: 57.5 | Kd [13]: 8.1 µM
